Measurements from ChEMBL document CHEMBL4219256, “Design, Synthesis, and Biological Evaluation of 4-Quinoline Carboxylic Acids as Inhibitors of Dihydroorotate Dehydrogenase” (J Med Chem, 2018).

What was measured:
HCT-116 [1] = assay: Antiproliferative activity against human HCT116 cells over-expressing DHODH after 72 hrs by MTT assay; assay type: functional, cell-based
HL-60 = assay: Antiproliferative activity against human HL60 cells after 72 hrs by MTT assay
MIA PaCa-2 = assay: Antiproliferative activity against human MIAPaCa2 cells after 72 hrs by MTT assay; assay type: functional, cell-based
[2] = molecular target: Dihydroorotate dehydrogenase (quinone), mitochondrial (Homo sapiens, UniProt Q02127)
Description: Inhibition of DHODH (unknown origin) expressed in Escherichia coli Rosetta2(DE3) assessed as reduction of DCIP using dihydroorotate as substrate preincubated for 30 mins followed by substrate addition in presence of CoQ10 measured after 1 hr

[3] = Thermodynamic aqueous solubility of the compound in pH 7.4 phosphate buffer at 4.9 mg/ml after overnight incubation by CLND method; assay type: physicochemical
HCT-116 [4] = assay: Growth inhibition of human HCT116 cells over-expressing DHODH at 2 times antiproliferative IC50 after 72 hrs in presence of 5 uM uridine by MTT assay; assay type: functional
[5] = Thermodynamic aqueous solubility of the compound in pH 7.4 phosphate buffer at 2.9 mg/ml after overnight incubation by CLND method; assay type: physicochemical

Chain of Dihydroorotate dehydrogenase (quinone), mitochondrial (Q02127 whole entry): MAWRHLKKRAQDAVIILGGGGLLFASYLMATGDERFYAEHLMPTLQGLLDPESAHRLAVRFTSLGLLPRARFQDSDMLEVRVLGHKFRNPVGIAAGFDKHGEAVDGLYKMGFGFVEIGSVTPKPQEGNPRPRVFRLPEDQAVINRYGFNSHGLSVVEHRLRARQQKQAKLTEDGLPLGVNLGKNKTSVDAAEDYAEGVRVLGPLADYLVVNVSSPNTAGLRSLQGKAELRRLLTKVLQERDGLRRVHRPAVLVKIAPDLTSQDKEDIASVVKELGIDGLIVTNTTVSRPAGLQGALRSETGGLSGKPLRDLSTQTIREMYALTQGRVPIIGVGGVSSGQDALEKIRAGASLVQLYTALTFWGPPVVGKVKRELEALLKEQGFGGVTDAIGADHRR

SMILES | IC50 (HCT-116 [1]) [µM] | IC50 (MIA PaCa-2) [µM] | also measured
O=C(O)c1cc(-c2ccc(-c3ccccc3)cc2)nc2ccccc12 | 0.344 | 2.16 | IC50 (HL-60): 3.51 µM
Cc1c(-c2ccc(-c3ccccc3)cc2)nc2ccccc2c1C(=O)O | 8.51 | 5.29 | 
O=C(O)c1cc(-c2ccc(-c3ccc(F)nc3)cc2)nc2ccccc12 | 16.8 |  | 
CC(C)Cc1ccc(-c2cc(C(=O)O)c3ccccc3n2)cc1 |  | 14.5 | 
Cc1c(-c2ccc(-c3cccnc3F)cc2)nc2ccc(Cl)cc2c1C(=O)O | 5.43 | 14.7 | 
Cc1ccc2nc(-c3ccc(-c4cccnc4Cl)cc3)c(C)c(C(=O)O)c2c1 | 11.1 | 8.29 | 
Cc1c(-c2ccc(-c3cccnc3Cl)cc2)nc2ccc(Cl)cc2c1C(=O)O | 4.36 | 4.73 | 
O=C(O)c1cc(-c2ccc(-c3cccnc3Cl)cc2)nc2ccccc12 |  | 7.13 | IC50 (HL-60): 7.12 µM
COC(=O)c1cc(-c2ccc(-c3ccccc3)cc2)nc2ccccc12 | 6.9 | 11.5 | IC50 [2]: > 200 µM
Cc1c(-c2ccc(-c3cccnc3F)cc2)nc2ccccc2c1C(=O)O | 21.3 | 13.4 | 
O=C(O)c1cc(-c2ccc(-c3cccnc3F)cc2)nc2ccccc12 | 11.2 | 32.1 | IC50 [2]: 1.42 µM
O=C(O)c1cc(-c2ccc(-c3ccccn3)cc2)nc2ccccc12 | 39.6 | 49.3 | 
Cc1ccc(-c2ccc(-c3nc4ccc(F)cc4c(C(=O)O)c3C)cc2)c(F)n1 | 33.7 | 33.8 | 
Cc1c(-c2ccc(-c3cccnc3Cl)cc2)nc2ccccc2c1C(=O)O | 6.44 | 8.64 | IC50 (HL-60): 15.3 µM
Cc1ccc(-c2ccc(-c3cc(C(=O)O)c4ccccc4n3)cc2)c(Cl)n1 | 5.13 | 14.2 | 
O=C(O)c1cc(-c2ccc(C3CCCCC3)cc2)nc2ccccc12 | 4.22 | 5.88 | Therm_solubility [3]: 48 µM; growth inhibition (GI) (HCT-116 [4]): <50%; Therm_solubility [5]: 43.9 µM
O=C(O)c1cc(-c2ccc(-c3cccnc3)cc2)nc2ccccc12 | 20.9 | 32.8 | 
O=C(O)c1cc(-c2ccc(-c3ccncc3)cc2)nc2ccccc12 | 33.6 | 68.1 | 
O=C(O)c1cc(-c2ccc(N3CCCCC3)cc2)nc2ccccc12 | 7.23 | 16.7 | 
Cc1ccc(-c2ccc(-c3nc4ccccc4c(C(=O)O)c3C)cc2)c(F)n1 | 23.9 | 31.6 | 
O=C(O)c1cc(-c2ccc(N3CCOCC3)cc2)nc2ccccc12 | > 100 | > 100 | IC50 [2]: > 200 µM
Cc1ncccc1-c1ccc(-c2cc(C(=O)O)c3ccccc3n2)cc1 |  | 18.2 | IC50 (HL-60): 11.6 µM
Cc1ccc(-c2ccc(-c3nc4ccccc4c(C(=O)O)c3C)cc2)c(Cl)n1 | 15.5 | 7.7 | 
COC(=O)c1cc(-c2ccc(-c3cnccc3C(F)(F)F)cc2)nc2ccccc12 |  |  | IC50 [2]: > 50 µM
